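How tested: cells in 96-well plates exposed to compound for 48 hours at five concentrations. GI50: concentration for 50% inhibition of growth. TGI: concentration producing complete growth inhibition.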
Experiments:
Assay in all cases: inhibition of tumour cell growth, NCI panel, 48 h
MOLT-4 leukemia = system: MOLT-4 leukemia
MALME-3M melanoma = system: MALME-3M melanoma
SNB-75 CNS = system: SNB-75 CNS
A498 renal = system: A498 renal
SK-MEL-5 melanoma = system: SK-MEL-5 melanoma
SK-MEL-2 melanoma = system: SK-MEL-2 melanoma
CAKI-1 renal = system: CAKI-1 renal
SK-MEL-28 melanoma = system: SK-MEL-28 melanoma
SF-268 CNS = system: SF-268 CNS
U251 CNS = system: U251 CNS

Structure (SMILES)	TGI (MOLT-4 leukemia) [µM]	TGI (MALME-3M melanoma) [µM]	TGI (SNB-75 CNS) [µM]	TGI (A498 renal) [µM]	TGI (SK-MEL-5 melanoma) [µM]	TGI (SK-MEL-2 melanoma) [µM]	TGI (CAKI-1 renal) [µM]	TGI (SK-MEL-28 melanoma) [µM]	TGI (SF-268 CNS) [µM]	TGI (U251 CNS) [µM]	GI50 (MOLT-4 leukemia) [µM]	GI50 (MALME-3M melanoma) [µM]	GI50 (SNB-75 CNS) [µM]	GI50 (A498 renal) [µM]	GI50 (SK-MEL-5 melanoma) [µM]	GI50 (SK-MEL-2 melanoma) [µM]	GI50 (CAKI-1 renal) [µM]	GI50 (SK-MEL-28 melanoma) [µM]	GI50 (SF-268 CNS) [µM]	GI50 (U251 CNS) [µM]
Clc1ccc(-c2nnc(-c3cccc4ccccc34)o2)cc1Cl	> 100	> 100	> 100	> 100	> 100	> 100	> 100	> 100	> 100	> 100										
O=[N+]([O-])c1ccc(Oc2nc(Nc3ccc(O[C@H]4CO[C@H]5[C@@H]4OC[C@@H]5O)c(Cl)c3)ncc2F)c(Cl)c1	4.82	3.17	3.28	2.38	2.59	2.04	8.11	4.78	6.92	6.51	1.27	1.07	0.443	0.669	1.29	0.483	2.28	1.55	1.56	1.66
O=C(O)C1CCCCC1c1c2ccc(=O)c(O)c-2oc2c(O)c(O)ccc12 (stereo not given)	84.4	> 100	> 100	> 100	> 100	> 100	> 100	> 100	> 100	24.8										
N#CC1CCCCOCCOCCOCCOCCOCCCCCC1=O (stereo not given)	> 100	> 100	> 100	> 100	> 100	> 100	> 100	> 100	> 100	> 100										
O=C1C2=C(c3ccccc31)C(c1ccccc1)N1C(=O)CSC1=N2 (stereo not given)	> 100	> 100	67.7	> 100	> 100	> 100	> 100	> 100	> 100	> 100										
N[C@@H]1C(=O)N2C(C(=O)OC(c3ccccc3)c3ccccc3)=C(CCl)CS[C@H]12	> 71.2	> 100	> 100	> 100	> 100	> 100	> 100	53.8	98.7	> 78.9	11.3	> 74.5	47.7	> 100	40.8	54.2	> 100	22.4	31.7	29.2
O=[N+]([O-])c1ccc(Cl)c(C2CC(c3cccc4ccccc34)=Nc3ccccc3S2)c1 (stereo not given)	> 56.9	> 100	60.5	> 78.9	> 31.6	62.8	> 100	> 84.2	> 92.1	65.9										
O=C(/C=C/c1ccco1)c1ccc(NCc2nc3ccccc3[nH]2)cc1	31.9	33.2	31.1	27.5	28.6	34.9	49.9	33.8	46.4	23.8										
CN(C)c1ccc(/C=C/c2ccc(/C=C/c3ccc(N(C)C)cc3)cc2)cc1	> 100	> 100	> 100	> 100	> 100	> 100	> 100	> 100	> 100	> 100										
Cc1cc2cc3ccc(N(C)C)cc3nc2cc1N	9.31	3.42	2.3	2.05	2.25	1.6	1.35	4.74	2.32	1.61	0.438	0.929	1.04	0.433	0.767	0.392	0.321	1.69	0.611	0.312
Oc1ccc(-c2nc3ccc4[nH]ncc4c3c3c2CCCC3)c(F)c1	8.88	12.1	7.05	6.51	9.26	2.93	9.73	12.4	14.7	6.36	1.91	3.36	2.02	2.25	2.55	1.01	2.69	2.74	3.27	1.45
CC1=CC(=O)C(C(C)C)=CC1=Nc1cc(Br)c(O)c(Br)c1	23.4	33.4	21.6	19.6	10.7	30.1	8.02	22.4	17.2	19.1	4.53	14.1	4.22	3.81	3.15	8.94	2.46	6.82	4.49	4.72
O=C1NC(=O)C(=Nc2cccc3c(=O)[nH][nH]c(=O)c23)C(c2nc3ccccc3s2)C1=O (stereo not given)	> 100	> 100	> 100	> 100	> 100	> 100	> 100	> 100	> 100	> 100										
S=C(Nc1ccc(N=Nc2ccccc2)cc1)SCc1ccccc1	27.9	22.9	44.2	43.7	29.6	50	32.9	38	36.6	29.7										
CCN(CC)c1ccc(N=Nc2ccc([N+](=O)[O-])cc2OC(=O)/C=C/c2ccccc2)c(OC(=O)/C=C/c2ccccc2)c1	> 100	> 100	> 100	> 58.4	> 100	> 100	> 100	> 100	> 100	> 100										
NC(=O)c1ccccc1NC(=O)C(=O)Cc1nc2ccccc2[nH]c1=O	> 100	> 100	> 100	> 100	> 100	> 100	> 100	> 100	> 100	> 100										
COc1cc(OC)c2nccc(NCCCN(C)C)c2c1[N+](=O)[O-]	> 100	> 100	> 100	> 100	> 100	> 100	> 100	> 100	> 100	> 100										
Cn1c(=O)c(NC(=O)C(Cl)(Cl)Cl)nc2ccccc21	> 100	> 100	> 100	> 100	> 100	> 100	> 100	> 100	> 100	> 100										
